Test results: patent publication US20020128193A1, “Retro-inverso prosaposin-derived peptides and use thereof” (priority 1999, published 2002)
≈ marks a conversion by molar mass, not a printed value. Like-named read-outs stand apart in the source and are kept apart here. Blank lines part the entries; values can stand above or below the molecule they belong to. Non-standard residues stand in square brackets, D forms with d. Residues, ends and D or L forms follow the SMILES beside them. No end group written: not given here.

What was measured:
[1] = system: NS20Y neuroblastoma cells; details: for Bioactive?: neurite outgrowth, 0-8 ng/ml peptide, 24 hours
Description: NS20Y neuroblastoma cells were grown in DMEM containing 10% fetal calf serum (FCS). Cells were removed with trypsin and plated in 30 mm petri dishes onto glass coverslips. […] Cells were cultured for an additional 24 hours, washed with PBS and fixed with Bouin's solution (saturated aqueous picric acid/formalin/acetic acid 15:5:1) for 30 minutes. Fixative was removed with PBS and neurite outgrowth was scored under a phase contrast microscope. […] At least 200 cells were scored in different portions of each dish to determine the percentage of neurite bearing cells and assays were performed in duplicate.
The ED50 value is defined as the half maximal concentration for maximal neurite outgrowth and neural protection in ng/ml.

[2] = Localization and integrity of 125I-peptide D8 in organs after intramuscular or oral administration; type: in vivo, Sprague-Dawley rat; details: for D8 in tissue: Brain / D8 in tissue: Eyes / D8 in tissue: Heart / D8 in tissue: Kidney 1 / D8 in tissue: Kidney 2 / D8 in tissue: Liver / D8 in tissue: Lung / D8 in tissue: Muscle / D8 in tissue: Sciatic Nerve / D8 in tissue: Spinal Cord / D8 in tissue: Spleen: 200 μg/kg, rat; for crossing of the blood brain barrier: iodinated D8, rat, found in brain after oral administration
Description: Peptide D8 (SEQ ID NO: 4) was iodinated with ^125I according to the manufacturer's instructions (Pierce Chemical Co., Rockford, Ill.), and 200 μg/kg in PBS was injected intramuscularly into, or administered orally to, an adult male Sprague-Dawley rat. […] Results below give ng/g of […] in each tissue after conversion of cpm to nanograms (Table 2). All organs studied contained 90% or greater intact D8. The trophic concentration was estimated to be about 0.2 ng/g over 20 min.

EAE rats = assay: Reversal of demyelination in experimental allergic encephalomyelitis (EAE) rat model; type: in vivo, Lewis rats; details: oral D8 100 μg/kg daily
Description: Experimental allergic encephalomyelitis (EAE) is a rat model of human multiple sclerosis (MS). In rats, EAE is induced by injecting foreign protein (guinea pig spinal cord) which results in inflammation and demyelination in white matter 11 days later.
EAE was induced in Lewis rats by injection of an emulsion of guinea pig spinal cord and complete Freund's adjuvant (CFA). At day 12-14, when weakness was evident, treatment with D8 (SEQ ID NO: 4) was begun (100 μg/kg orally in PBS via a stomach tube) and continued for 16 days every day. Six rats were injected with vehicle only. The number and size of demyelinating lesions (plaques) in the spinal cord per mm^2 was scored at […].
After 16 days of oral treatment with D8 (100 μg/kg/day) beginning after the onset of EAE at 14 days, spinal cord lesions were examined and the number of remyelinated axons per lesion were counted.

[3] = system: neuroblastoma cells and mouse cerebellar explants; details: cited from earlier work
[4] = system: choline acetyltransferase; details: neuroblastoma cells in vitro; cited from earlier work
neuroblastoma cells = neuroblastoma cells in vitro; cited from earlier work
myelination = details: cited from earlier work
[5] = half maximal concentration for maximal neurite outgrowth and neural protection, NS20Y cells

D8 in tissue: Brain ([2]; intramuscular, 20 min): 1.00 ng/g
D8 in tissue: Eyes ([2]; intramuscular, 20 min): 13.9 ng/g
D8 in tissue: Heart ([2]; intramuscular, 20 min): 9.8 ng/g
D8 in tissue: Kidney 1 ([2]; intramuscular, 20 min): 395 ng/g
D8 in tissue: Kidney 2 ([2]; intramuscular, 20 min): 405 ng/g
D8 in tissue: Liver ([2]; intramuscular, 20 min): 8.0 ng/g
D8 in tissue: Lung ([2]; intramuscular, 20 min): 43.0 ng/g
D8 in tissue: Muscle ([2]; intramuscular, 20 min): 19.7 ng/g
D8 in tissue: Sciatic Nerve ([2]; intramuscular, 20 min): 36.7 ng/g
D8 in tissue: Spinal Cord ([2]; intramuscular, 20 min): 2.90 ng/g
D8 in tissue: Spleen ([2]; intramuscular, 20 min): 41.7 ng/g
crossing of the blood brain barrier [2]: can cross the blood brain barrier
crossing of the blood brain barrier ([2]; listed as SEQ ID NO: 4): crosses the blood brain barrier
D8 in tissue: Brain ([2]; oral, 25 min): 5.62 ng/g
D8 in tissue: Eyes ([2]; oral, 25 min): 4.66 ng/g
D8 in tissue: Heart ([2]; oral, 25 min): 3.26 ng/g
D8 in tissue: Kidney 1 ([2]; oral, 25 min): 201 ng/g
D8 in tissue: Kidney 2 ([2]; oral, 25 min): 217 ng/g
D8 in tissue: Liver ([2]; oral, 25 min): 5.6 ng/g
D8 in tissue: Lung ([2]; oral, 25 min): 526 ng/g
D8 in tissue: Muscle ([2]; oral, 25 min): 3.2 ng/g
D8 in tissue: Sciatic Nerve ([2]; oral, 25 min): 3.3 ng/g
D8 in tissue: Spinal Cord ([2]; oral, 25 min): 2.15 ng/g
D8 in tissue: Spleen ([2]; oral, 25 min): 4.9 ng/g
weight loss versus control animals (EAE rats): no difference in weight loss
Molecule: CC(C)C[C@@H](N)C(=O)N[C@H](CC(C)C)C(=O)N[C@H](CCC(=O)O)C(=O)N[C@H](CCC(=O)O)C(=O)N[C@H](CC(N)=O)C(=O)N[C@H](CC(N)=O)C(=O)N[C@H](CC(=O)O)C(=O)N[C@H](CC(C)C)C(=O)O [Peptide D8, D-leu-D-leu-D-glu-D-glu-D-asn-D-asn-D-asp-D-leu] (HELM PEPTIDE1{[dL].[dL].[dE].[dE].[dN].[dN].[dD].[dL]}$$$$V2.0; N-terminus and C-terminus assumed)
ED50 [1]: 0.01 ng/mL (≈ 0.0104 nM)

Molecule: CEFLVKEVTKLIDNNKTEKEIL [Peptide 22-mer, 22-mer peptide consisting of amino acids 8-29 of human saposin C]
neurite outgrowth ([3]; in both neuroblastoma cells and mouse cerebellar explants): stimulates neurite outgrowth
choline acetyltransferase activity [4]: stimulates choline acetyltransferase activity
cell death (neuroblastoma cells): prevents cell death

Molecule: LLEETANNDL [Peptide D5]
ED50 [1, 5]: 0.2 ng/mL
Bioactive? ([1]; NS20Y cells): YES

Molecule: TXLIDNNATEEILY, X=D-alanine (T[dA]LIDNNATEEILY) [Peptide D1]
ED50 [1, 5]: 1.00 ng/mL
Bioactive? ([1]; NS20Y cells): YES

Molecule: YKEVTKLIDNNKTEKEIL [Peptide 18-mer]
neurite outgrowth [3]: promotes neurite outgrowth

Molecule: YLIEETANNDLAT [Peptide D2]
ED50 [1, 5]: 0.8 ng/mL
Bioactive? ([1]; NS20Y cells): YES

Molecule: YLLEETANNDL [Peptide D4]
ED50 [1, 5]: 0.4 ng/mL
Bioactive? ([1]; NS20Y cells): YES

Molecule: YLLEETANNDLLAT [Peptide D3]
ED50 [1, 5]: 0.4 ng/mL
Bioactive? ([1]; NS20Y cells): YES

Molecule: YSLEKETKNNDLL [Peptide D6]
ED50 [1, 5]: 0.27 ng/mL
Bioactive? ([1]; NS20Y cells): YES

B1: saposin C: glycoprotein generated by proteolytic processing of prosaposin (protein, UniProt P07602 311-390, looked up)
Saposin-C: SDVYCEVCEFLVKEVTKLIDNNKTEKEILDAFDKMCSKLPKSLSEECQEVVDTYGSSILSILLEEVSPELVCSMLHLCSG
modifications: Saposin-C
notes: glycoprotein generated by proteolytic processing of prosaposin
neurite outgrowth [3]: stimulate neurite outgrowth
myelination (myelination): promote increased myelination
